{
  "source": "patent US9828393B2",
  "about": "“Silylalkyloxyaryl compounds and methods for treating cancer” (THE REGENTS OF THE UNIVERSITY OF COLORADO, a body corporate, priority 2013, dated 2017)",
  "key": {"SK-MEL-5": {"test_system": "SK-MEL-5", "assay": "NCI-60 cell line screen (SRB), SK-MEL-5", "format": "cell-based, human", "conditions": "Homo sapiens, SK-MEL-5, 48 h", "experimental": "(§1) Drug sensitivity data are provided as GI50s (concentrations required to inhibit growth by 50%). The first row of the text file identifies cell lines, separated by tabs. Subsequent rows contain compound number, compound name, and GI50 for each cell line, each separated by a tab. […] For a typical screening experiment, cells are inoculated into 96 well microtiter plates in 100 μL at plating densities ranging from 5,000 to 40,000 cells/well depending on the doubling time of individual cell lines. After cell inoculation, the microtiter plates are incubated at 37° C., 5% CO2, 95% air and 100% relative humidity for 24 h prior to addition of experimental drugs. After 24 h, two plates of each cell line are fixed in situ with TCA, to represent a measurement of the cell population for each cell line at the time of drug addition (Tz). Experimental drugs are solubilized in dimethyl sulfoxide at 400-fold the desired final maximum test concentration and stored frozen prior to use. At the time of drug addition, an aliquot of frozen concentrate is thawed and diluted to twice the desired final maximum test concentration with complete medium containing 50 μg/ml gentamicin. Additional four, 10-fold or one-half log serial dilutions are made to provide a total of five drug concentrations plus control. Aliquots of 100 μl of these different drug dilutions are added to the appropriate microtiter wells already containing 100 μl of medium, resulting in the required final drug concentrations. Following drug addition, the plates are incubated for an additional 48 h at 37° C., 5% CO2, 95% air, and 100% relative humidity. For adherent cells, the assay is terminated by the addition of cold TCA. Cells are fixed in situ by the gentle addition of 50 μl of cold 50% (w/v) TCA (final concentration, 10% TCA) and incubated for 60 minutes at 4° C. The supernatant is discarded, and the plates are washed five times with tap water and air dried. Sulforhodamine B (SRB) solution (100 μl) at 0.4% (w/v) in 1% acetic acid is added to each well, and plates are incubated for 10 minutes at room temperature. After staining, unbound dye is removed by washing five times with 1% acetic acid and the plates are air dried. Bound stain is subsequently solubilized with 10 mM trizma base, and the absorbance is read on an automated plate reader at a wavelength of 515 nm. For suspension cells, the methodology is the same except that the assay is terminated by fixing settled cells at the bottom of the wells by gently adding 50 μl of 80% TCA (final concentration, 16% TCA). Using the seven absorbance measurements [time zero, (Tz), control growth, (C), and test growth in the presence of drug at the five concentration levels (Ti)], the percentage growth is calculated at each of the drug concentrations levels. […]"}, "NCI-H522": {"test_system": "NCI-H522", "assay": "NCI-60 cell line screen (SRB), NCI-H522", "format": "cell-based, human", "conditions": "Homo sapiens, NCI-H522, 48 h", "experimental": "as §1"}, "SNB-19": {"test_system": "SNB-19", "assay": "NCI-60 cell line screen (SRB), SNB-19", "format": "cell-based, human", "conditions": "Homo sapiens, SNB-19, 48 h", "experimental": "as §1"}, "[1]": {"test_system": "Ovarian Cancer cell lines", "assay": "NCI-60 cell line screen, Ovarian Cancer panel average", "format": "cell-based, human", "conditions": "Homo sapiens, read-out: GI50 Average", "experimental": "as §1"}, "Breast Cancer cell lines": {"test_system": "Breast Cancer cell lines", "assay": "NCI-60 cell line screen, Breast Cancer panel average", "format": "cell-based, human", "conditions": "Homo sapiens, read-out: GI50 Average", "experimental": "as §1"}, "Renal Cancer cell lines": {"test_system": "Renal Cancer cell lines", "assay": "NCI-60 cell line screen, Renal Cancer panel average", "format": "cell-based, human", "conditions": "Homo sapiens, read-out: GI50 Average", "experimental": "as §1"}, "[2]": {"test_system": "Non-Small Cell Lung Cancer cell lines", "assay": "NCI-60 cell line screen, Non-Small Cell Lung Cancer panel average", "format": "cell-based, human", "conditions": "Homo sapiens, read-out: GI50 Average", "experimental": "as §1"}, "HCT-116": {"test_system": "HCT-116", "assay": "NCI-60 cell line screen (SRB), HCT-116", "format": "cell-based, human", "conditions": "Homo sapiens, HCT-116, 48 h", "experimental": "as §1"}, "TK-10": {"test_system": "TK-10", "assay": "NCI-60 cell line screen (SRB), TK-10", "format": "cell-based, human", "conditions": "Homo sapiens, TK-10, 48 h", "experimental": "as §1"}, "LOX IMVI": {"test_system": "LOX IMVI", "assay": "NCI-60 cell line screen (SRB), LOX IMVI", "format": "cell-based, human", "conditions": "Homo sapiens, 48 h", "experimental": "as §1"}, "CAKI-1": {"test_system": "CAKI-1", "assay": "NCI-60 cell line screen (SRB), CAKI-1", "format": "cell-based, human", "conditions": "Homo sapiens, CAKI-1, 48 h", "experimental": "as §1"}, "NCI/ADR-RES": {"test_system": "NCI/ADR-RES", "assay": "NCI-60 cell line screen (SRB), NCI/ADR-RES", "format": "cell-based, human", "conditions": "Homo sapiens, 48 h", "experimental": "as §1"}, "RXF 393": {"test_system": "RXF 393", "assay": "NCI-60 cell line screen (SRB), RXF 393", "format": "cell-based, human", "conditions": "Homo sapiens, RXF 393, 48 h", "experimental": "as §1"}, "UACC-62": {"test_system": "UACC-62", "assay": "NCI-60 cell line screen (SRB), UACC-62", "format": "cell-based, human", "conditions": "Homo sapiens, UACC-62, 48 h", "experimental": "as §1"}, "HS 578T": {"test_system": "HS 578T", "assay": "NCI-60 cell line screen (SRB), HS 578T", "format": "cell-based, human", "conditions": "Homo sapiens, Hs-578T, 48 h", "experimental": "as §1"}, "HCT-15": {"test_system": "HCT-15", "assay": "NCI-60 cell line screen (SRB), HCT-15", "format": "cell-based, human", "conditions": "Homo sapiens, HCT-15, 48 h", "experimental": "as §1"}, "HCC-2998": {"test_system": "HCC-2998", "assay": "NCI-60 cell line screen (SRB), HCC-2998", "format": "cell-based, human", "conditions": "Homo sapiens, HCC 2998, 48 h", "experimental": "as §1"}, "MOLT-4": {"test_system": "MOLT-4", "assay": "NCI-60 cell line screen (SRB), MOLT-4", "format": "cell-based, human", "conditions": "Homo sapiens, MOLT-4, 48 h", "experimental": "as §1"}, "MDA-MB-468": {"test_system": "MDA-MB-468", "assay": "NCI-60 cell line screen (SRB), MDA-MB-468", "format": "cell-based, human", "conditions": "Homo sapiens, MDA-MB-468, 48 h", "experimental": "as §1"}, "SNB-75": {"test_system": "SNB-75", "assay": "NCI-60 cell line screen (SRB), SNB-75", "format": "cell-based", "conditions": "Homo sapiens, SNB-75, 48 h", "experimental": "as §1, with “temperature.” for “temperature. After staining, unbound dye is removed by washing five times with 1% acetic acid and the plates are air dried. Bound stain is subsequently solubilized with 10 mM trizma base, and the absorbance is read on an automated plate reader at a wavelength of 515 nm. For suspension cells, the methodology is the same except that the assay is terminated by fixing settled cells at the bottom of the wells by gently adding 50 μl of 80% TCA (final concentration, 16% TCA). Using the seven absorbance measurements [time zero, (Tz), control growth, (C), and test growth in the presence of drug at the five concentration levels (Ti)], the percentage growth is calculated at each of the drug concentrations levels.”"}, "OVCAR-5": {"test_system": "OVCAR-5", "assay": "NCI-60 cell line screen (SRB), OVCAR-5", "format": "cell-based, human", "conditions": "Homo sapiens, OVCAR-5, 48 h", "experimental": "as §1"}, "ACHN": {"test_system": "ACHN", "assay": "NCI-60 cell line screen (SRB), ACHN", "format": "cell-based, human", "conditions": "Homo sapiens, 48 h", "experimental": "as §1"}, "T-47D": {"test_system": "T-47D", "assay": "NCI-60 cell line screen (SRB), T-47D", "format": "cell-based, human", "conditions": "Homo sapiens, T47D, 48 h", "experimental": "as §1"}, "UACC-257": {"test_system": "UACC-257", "assay": "NCI-60 cell line screen (SRB), UACC-257", "format": "cell-based, human", "conditions": "Homo sapiens, UACC-257, 48 h", "experimental": "as §1"}},
  "data": [
    {"smiles": "CCCC[Si](C)(C)COc1ccc(C(=O)N[C@@H](Cc2ccc(-c3ccccc3)cc2)C(=O)NC2CC(C)(C)NC(C)(C)C2)cc1", "note": "[GH1504, N^α-{4-[(butyldimethylsilyl)methoxy]-benzoyl}-N-(2,2,6,6-tetramethylpiperidin-4-yl)-(4-phenyl-L-phenylalaninamide)]", "values": [
      {"measurement": "GI50", "setting": "SK-MEL-5", "value": 234, "unit": "nM"},
      {"measurement": "GI50", "setting": "NCI-H522", "value": 1060, "unit": "nM"},
      {"measurement": "GI50", "setting": "SNB-19", "value": 1550, "unit": "nM"},
      {"measurement": "GI50", "setting": "[1]", "value": 1150, "unit": "nM"},
      {"measurement": "GI50", "setting": "Breast Cancer cell lines", "value": 1170, "unit": "nM"},
      {"measurement": "GI50", "setting": "Renal Cancer cell lines", "value": 1010, "unit": "nM"},
      {"measurement": "GI50", "setting": "[2]", "value": 1020, "unit": "nM"},
      {"measurement": "GI50", "setting": "HCT-116", "value": 218, "unit": "nM"},
      {"measurement": "GI50", "setting": "TK-10", "value": 1110, "unit": "nM"},
      {"measurement": "GI50", "setting": "LOX IMVI", "value": 207, "unit": "nM"},
      {"measurement": "GI50", "setting": "CAKI-1", "value": 1580, "unit": "nM"},
      {"measurement": "GI50", "setting": "NCI/ADR-RES", "value": 1540, "unit": "nM"},
      {"measurement": "GI50", "setting": "RXF 393", "value": 179, "unit": "nM"},
      {"measurement": "GI50", "setting": "UACC-62", "value": 1150, "unit": "nM"},
      {"measurement": "GI50", "setting": "HS 578T", "value": 1850, "unit": "nM"},
      {"measurement": "GI50", "setting": "HCT-15", "value": 309, "unit": "nM"},
      {"measurement": "GI50", "setting": "HCC-2998", "value": 1110, "unit": "nM"},
      {"measurement": "GI50", "setting": "MOLT-4", "value": 775, "unit": "nM"},
      {"measurement": "GI50", "setting": "MDA-MB-468", "value": 198, "unit": "nM"},
      {"measurement": "GI50", "setting": "SNB-75", "value": 1630, "unit": "nM"},
      {"measurement": "GI50", "setting": "OVCAR-5", "value": 1810, "unit": "nM"},
      {"measurement": "GI50", "setting": "ACHN", "value": 402, "unit": "nM"},
      {"measurement": "GI50", "setting": "T-47D", "value": 1820, "unit": "nM"},
      {"measurement": "GI50", "setting": "UACC-257", "value": 1780, "unit": "nM"}
    ]}
  ]
}
